We go through three compounds from paper PMC4412765 (Chemical biology & drug design, 2014).

Like-named read-outs stand apart in the source and are kept apart here.

The target of one experiment is cis-DPPS (Rv2361c) (Mycobacterium tuberculosis, UniProt P9WFF7).
In the next experiment the test system is M. smegmatis. Kind of experiment: Activity against the M. tuberculosis model M. smegmatis. Format: cell-based.
The target in the next experiment is Rv3378c (Mycobacterium tuberculosis, UniProt P9WJ61).
Sequence of Rv3378c (P9WJ61 whole entry): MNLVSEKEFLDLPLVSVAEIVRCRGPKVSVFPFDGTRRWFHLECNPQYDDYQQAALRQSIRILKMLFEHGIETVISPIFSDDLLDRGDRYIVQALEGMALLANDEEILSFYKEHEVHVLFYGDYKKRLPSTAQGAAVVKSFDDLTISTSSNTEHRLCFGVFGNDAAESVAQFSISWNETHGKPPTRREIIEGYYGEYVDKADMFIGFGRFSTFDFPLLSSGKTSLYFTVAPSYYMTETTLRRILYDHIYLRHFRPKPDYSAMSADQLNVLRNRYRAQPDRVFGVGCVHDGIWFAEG
In a further experiment the test system is UPPS. The following applies: cited from earlier work.
A further experiment relates to S. aureus. Particulars: cited from earlier work.

Sequence of cis-DPPS (Rv2361c) (P9WFF7 whole entry): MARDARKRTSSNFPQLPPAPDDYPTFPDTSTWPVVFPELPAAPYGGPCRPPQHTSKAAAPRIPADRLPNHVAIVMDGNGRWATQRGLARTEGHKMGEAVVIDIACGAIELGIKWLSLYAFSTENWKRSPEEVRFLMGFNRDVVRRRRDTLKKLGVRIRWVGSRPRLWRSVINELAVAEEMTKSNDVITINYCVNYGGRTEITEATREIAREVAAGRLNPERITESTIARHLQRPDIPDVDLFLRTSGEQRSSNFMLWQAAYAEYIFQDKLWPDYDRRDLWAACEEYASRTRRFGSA

As for `O=P(O)(O)C(O)(Cc1cccc(-c2cccc3c2oc2ccccc23)c1)P(=O)(O)O` [BPH-629], on cis-DPPS (Rv2361c) (read-out: IC50 against DPPS, cis-FPP as substrate), the IC50 (usually the point on the concentration scale where inhibition reaches its midpoint) was 610 nM. Moreover, the “activity against M. smegmatis” value in the experiment on M. smegmatis was “inactive”.
Regarding `Cl.Cl.O=C(Nc1cccc(C2=NCCN2)c1)c1ccc(-c2ccc(C(=O)Nc3cccc(C4=NCCN4)c3)cc2)cc1` [BPH-1358], the “activity against Rv3378c” value on Rv3378c was “inactive”. Further, the UPPS inhibition entry with UPPS is listed as “potent UPPS inhibitor”.
For the compound `C(=C\c1cc2ccc(C3=NCCN3)cc2[nH]1)/c1cc2ccc(C3=NCCN3)cc2[nH]1` [BPH-1417], the concentration for half-maximal inhibition (IC50) is 500 to 20000 nM on cis-DPPS (Rv2361c) (read-out: IC50 against DPPS, depending on substrate) and 1300 nM at cis-DPPS (Rv2361c) (read-out: IC50 against cis-DPPS, substrate not stated). Besides, the “in vivo activity against S. aureus” value with S. aureus is listed as “potent”.
